US8927717B1, “Thiochromeno[2,3-c]quinolin-12-one derivatives, preparation method and application thereof” (National Defense Medical Center, priority 2014, dated 2015)

Experiments:
Format in all cases: cell-based
NCI-H460 = tested on: NCI-H460
TK-10 = settings: Renal cancer; 10^−5 molar; 48 hours; SRB
SNB-75 = tested on: SNB-75
NCI-H23 = settings: Non-small cell lung cancer; 10^−5 molar; 48 hours; SRB
MDA-MB-231/ATCC = tested on: MDA-MB-231/ATCC
SNB-19 = tested on: SNB-19
SF-268 = tested on: SF-268
SK-MEL-5 = tested on: SK-MEL-5
MOLT-4 = tested on: MOLT-4
DU-145 = tested on: DU-145
U251 = tested on: U251
RPMI-8226 = tested on: RPMI-8226
UACC-62 = tested on: UACC-62
HL-60(TB) = tested on: HL-60(TB)
MALME-3M = settings: Melanoma; 10^−5 molar; 48 hours; SRB
MCF7 = tested on: MCF7
A549/ATCC = tested on: A549/ATCC
COLO 205 = tested on: COLO 205
HS 578T = tested on: HS 578T
RXF 393 = tested on: RXF 393
SK-OV-3 = tested on: SK-OV-3
[1] = Homo sapiens, NCI-H460, five dose
[2] = Non-small cell lung cancer, 10^−5 molar, 48 hours, SRB
[3] = CNS cancer, 10^−5 molar, 48 hours, SRB
[4] = Homo sapiens, SNB-75, five dose
[5] = Breast cancer, 10^−5 molar, 48 hours, SRB
[6] = Homo sapiens, SNB-19, five dose
[7] = Homo sapiens, SK-MEL-5, five dose
[8] = Melanoma, 10^−5 molar, 48 hours, SRB
[9] = Leukemia, 10^−5 molar, 48 hours, SRB
[10] = Homo sapiens, U-251, U251, five dose
[11] = Homo sapiens, A549/ATCC, five dose
[12] = Homo sapiens, COLO 205, five dose

CN(C)CCNc1nc2ccccc2c2c(=O)c3cc(Cl)ccc3sc12 [Compound N7, 10-Chloro-6-((2-(dimethylamino)ethyl)amino)-12H-thiochromeno[2,3-c]quinolin-12-one]
GI50 (NCI-H460; [1]): 1.76 µM
LC50 (NCI-H460; [1]): 6.5 µM
TGI (NCI-H460; NCI-H460, five dose): 3.38 µM
Growth percent NCI-H460 (NCI-H460; [2]): −71.14%
Growth percent TK-10 (TK-10): −89.05%
Growth percent SNB-75 (SNB-75; [3]): 33.36%
GI50 (SNB-75; [4]): 1.28 µM
LC50 (SNB-75; [4]): 12.1 µM
TGI (SNB-75; SNB-75, five dose): 3.69 µM
Growth percent NCI-H23 (NCI-H23): 72.59%
Growth percent MDA-MB-231/ATCC (MDA-MB-231/ATCC; [5]): −37.28%
GI50 (MDA-MB-231/ATCC; Homo sapiens, MDA-MB-231/ATCC, five dose): 1.2 µM
CC50 (MDA-MB-231/ATCC; Homo sapiens, MDA-MB-231/ATCC, five dose, read-out: LC50 (the source's name)): 5.28 µM
TGI (MDA-MB-231/ATCC; MDA-MB-231/ATCC, five dose): 2.51 µM
Growth percent SNB-19 (SNB-19; [3]): 55.44%
GI50 (SNB-19; [6]): 1.54 µM
LC50 (concentration killing 50% of cells) (SNB-19; [6]): 6.1 µM
TGI (SNB-19; SNB-19, five dose): 3.07 µM
Growth percent SF-268 (SF-268; [3]): 39.05%
GI50 (SF-268; Homo sapiens, SF-268, five dose): 1.57 µM
CC50 (SF-268; Homo sapiens, SF-268, five dose, read-out: LC50 (the source's name)): 6.35 µM
TGI (SF-268; SF-268, five dose): 3.16 µM
GI50 (SK-MEL-5; [7]): 1.57 µM
LC50 (SK-MEL-5; [7]): 8.21 µM
Growth percent SK-MEL-5 (SK-MEL-5; [8]): 18.83%
TGI (SK-MEL-5; SK-MEL-5, five dose): 3.59 µM
GI50 (MOLT-4; Homo sapiens, MOLT-4, five dose): 1.71 µM
CC50 (MOLT-4; Homo sapiens, MOLT-4, five dose, read-out: LC50 (the source's name)): 6.74 µM
Growth percent MOLT-4 (MOLT-4; [9]): −56.34%
TGI (MOLT-4; MOLT-4, five dose): 3.40 µM
TGI (DU-145; DU-145, five dose): 3.34 µM
GI50 (DU-145; Homo sapiens, DU-145, five dose): 1.87 µM
CC50 (DU-145; Homo sapiens, DU-145, five dose, read-out: LC50 (the source's name)): 5.99 µM
Growth percent DU-145 (DU-145; Prostate cancer, 10^−5 molar, 48 hours, SRB): −80.85%
Growth percent U251 (U251; [3]): −39.75%
GI50 (U251; [10]): 1.48 µM
LC50 (U251; [10]): 5.44 µM
TGI (U251; U251, five dose): 2.84 µM
GI50 (RPMI-8226; Homo sapiens, RPMI-8226, five dose): 1.76 µM
CC50 (RPMI-8226; Homo sapiens, RPMI-8226, five dose, read-out: LC50 (the source's name)): 7.69 µM
Growth percent RPMI-8226 (RPMI-8226; [9]): −37.68%
TGI (RPMI-8226; RPMI-8226, five dose): 3.68 µM
GI50 (UACC-62; Homo sapiens, UACC-62, five dose): 1.7 µM
CC50 (UACC-62; Homo sapiens, UACC-62, five dose, read-out: LC50 (the source's name)): 5.88 µM
Growth percent UACC-62 (UACC-62; [8]): −76.58%
TGI (UACC-62; UACC-62, five dose): 3.16 µM
TGI (HL-60(TB); HL-60(TB), five dose): 3.49 µM
GI50 (HL-60(TB); Homo sapiens, HL-60(TB), five dose): 1.76 µM
CC50 (HL-60(TB); Homo sapiens, HL-60(TB), five dose, read-out: LC50 (the source's name)): 6.95 µM
Growth percent HL-60(TB) (HL-60(TB); [9]): −47.40%
Growth percent MALME-3M (MALME-3M): −4.32%
Growth percent MCF7 (Table 2: MCF) (MCF7; [5]): −85.41%
GI50 (MCF7; Homo sapiens, MCF7, five dose): 1.23 µM
CC50 (MCF7; Homo sapiens, MCF7, five dose, read-out: LC50 (the source's name)): 5.71 µM
TGI (MCF7; MCF7, five dose): 2.66 µM
TGI (A549/ATCC; A549/ATCC, five dose): 3.17 µM
GI50 (A549/ATCC; [11]): 1.66 µM
LC50 (A549/ATCC; [11]): 6.06 µM
Growth percent A549/ATCC (A549/ATCC; [2]): 23.38%
TGI (COLO 205; COLO 205, five dose): 3.17 µM
Growth percent COLO 205 (COLO 205; Colon cancer, 10^−5 molar, 48 hours, SRB): −82.85%
GI50 (COLO 205; [12]): 1.66 µM
LC50 (COLO 205; [12]): 6.05 µM
Growth percent HS 578T (HS 578T; [5]): 34.31%
TGI (HS 578T; HS 578T, five dose): 4.02 µM
GI50 (HS 578T; Homo sapiens, HS 578T, five dose): 1.74 µM
CC50 (HS 578T; Homo sapiens, HS 578T, five dose, read-out: LC50 (the source's name)): 9.27 µM
GI50 (RXF 393; Homo sapiens, RXF 393, five dose): 1.6 µM
CC50 (RXF 393; Homo sapiens, RXF 393, five dose, read-out: LC50 (the source's name)): 7.29 µM
TGI (RXF 393; RXF 393, five dose): 3.41 µM
Growth percent RXF 393 (RXF 393; Renal cancer, 10^−5 molar, 48 hours, SRB): −15.29%
GI50 (SK-OV-3; Homo sapiens, SK-OV-3, five dose): 1.68 µM
CC50 (SK-OV-3; Homo sapiens, SK-OV-3, five dose, read-out: LC50 (the source's name)): 5.58 µM
Growth percent SK-OV-3 (SK-OV-3; Ovarian cancer, 10^−5 molar, 48 hours, SRB): 70.10%
